Data from patent US5506259A, “β-mercapto-propanamide derivatives useful in the treatment of cardiovascular diseases” (Zambon Group S.p.A., priority 1993, dated 1996).

Key:
[1] = target: T1, neutral endopeptidase enzyme (NEP) (Rattus norvegicus, UniProt P07861); experiment: In vitro NEP-inhibitory activity (inhibition of formation of [^3 H]-Tyr-Gly-Gly from [^3 H][Leu^5 ]-enkephaline in kidney cortex membranes); format: biochemical, male Sprague-Dawley rats; conditions: rat kidney cortex membranes 5 μg/ml protein; [^3 H][Leu^5 ]-enkephaline 15 nM; Bestatin 1 mM; pH 7.4; 20 minutes at 30° C.
T1 construct: Membranes from kidney cortex were prepared according to the following procedure; from tissue; host or cells: kidney cortex membranes of male Sprague-Dawley rats
T1 sequence (P07861 1-750): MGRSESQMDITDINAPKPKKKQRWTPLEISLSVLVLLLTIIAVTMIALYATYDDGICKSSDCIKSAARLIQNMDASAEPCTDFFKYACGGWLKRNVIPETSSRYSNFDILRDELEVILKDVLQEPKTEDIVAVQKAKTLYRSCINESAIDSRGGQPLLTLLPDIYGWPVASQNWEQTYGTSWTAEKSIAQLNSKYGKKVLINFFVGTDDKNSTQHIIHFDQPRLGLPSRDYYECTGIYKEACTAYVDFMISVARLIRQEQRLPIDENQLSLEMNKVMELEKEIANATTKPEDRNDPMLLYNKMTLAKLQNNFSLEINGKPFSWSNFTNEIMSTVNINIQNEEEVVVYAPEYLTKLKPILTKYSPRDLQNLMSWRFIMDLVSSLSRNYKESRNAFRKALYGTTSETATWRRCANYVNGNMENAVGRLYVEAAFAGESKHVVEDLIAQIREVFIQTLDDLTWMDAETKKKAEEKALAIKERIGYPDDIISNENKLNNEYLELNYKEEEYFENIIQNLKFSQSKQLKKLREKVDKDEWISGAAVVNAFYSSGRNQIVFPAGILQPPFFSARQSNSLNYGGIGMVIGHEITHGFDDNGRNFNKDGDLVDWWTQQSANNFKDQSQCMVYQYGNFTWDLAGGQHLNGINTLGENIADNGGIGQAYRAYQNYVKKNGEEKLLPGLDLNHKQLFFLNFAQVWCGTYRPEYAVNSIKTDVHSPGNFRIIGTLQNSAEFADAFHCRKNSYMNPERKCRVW
Method: The NEP-inhibitory activity of the compounds of formula I was evaluated by means of in vitro tests as percentage of inhibition in the formation of [^3 H]-Tyr-Gly-Gly, a metabolite of [^3 H][Leu^5 ]-enkephaline(see example 26).
a) In vitro NEP-inhibitory activity
The NEP-inhibitory activity in vitro was evaluated according to the method reported in the literature by C. Llorens et al., Eur. J. Pharmacol., 69, (1981), 113-116.
Membranes from kidney cortex were prepared according to the following procedure.
By working at 0°-4° C. the kidneys were removed from killed male Sprague-Dawley rats weighing approximately 300 g.
Cortex was carefully dissected, finely minced and suspended in homogenization buffer (10 mM sodium phosphate pH 7.4 containing 1 mM MgCl2, 30 mM NaCl, 0.02% NaN3) 1:15 weight/volume.
The tissue was then homogenized for 30 seconds using an Ultra-Turrax homogenizer.
Approximately 10 ml of homogenate were layered over 10 ml of sucrose (41% weight/volume) and centrifuged at 31200 rpm for 30 minutes at 4° C. in a fixed angle rotor.
The membranes were collected from the buffer/sucrose interface, washed twice with 50 mM TRIS/HCl buffer (pH 7.4) and resuspended into the same buffer for storage.
The membranes were stored in small aliquots at -80° C. until use. The NEP-inhibitory activity was evaluated by using the following method.
Aliquots of the membrane suspension prepared as above described (concentration 5 μg/ml of proteins) were preincubated in the presence of an aminopeptidase inhibitor (Bestatin - 1 mM) for 10 minutes at 30° C.
[^3 H][Leu^5 ]-enkephaline (15 nM) and buffer TRIS/HCl pH 7.4 (50 mM) were added in order to obtain a final volume of 100 μl.
Incubation (20 minutes at 30° C.) was stopped by adding 0.1M HCl (100 μl).
The formation of the metabolite [^3 H]Tyr-Gly-Gly was quantified by chromatography on polystyrene columns (Porapak Q).
The percentage of inhibition of the metabolite formation in the membrane preparations treated with the compounds of formula I and the reference compounds in comparison to the untreated membrane preparations was expressed as IC50 value (nM).

[2] = target: T2, endothelin converting enzyme (ECE) (Oryctolagus cuniculus, UniProt A0A5F9CTJ8); experiment: In vitro ECE-inhibitory activity (human Big endothelin-induced contraction of rabbit left saphenous artery rings; inhibition of endothelin formation); format: cell-based, Male New Zealand rabbits; conditions: human Big endothelin 3×10^-8 M, compound in contact 30 minutes, 37° C.
T2 construct: The left saphenous artery was removed and cleaned of the surrounding tissue; from tissue; host or cells: left saphenous artery rings of male New Zealand rabbits, with endothelium
T2 sequence (A0A5F9CTJ8 1-783): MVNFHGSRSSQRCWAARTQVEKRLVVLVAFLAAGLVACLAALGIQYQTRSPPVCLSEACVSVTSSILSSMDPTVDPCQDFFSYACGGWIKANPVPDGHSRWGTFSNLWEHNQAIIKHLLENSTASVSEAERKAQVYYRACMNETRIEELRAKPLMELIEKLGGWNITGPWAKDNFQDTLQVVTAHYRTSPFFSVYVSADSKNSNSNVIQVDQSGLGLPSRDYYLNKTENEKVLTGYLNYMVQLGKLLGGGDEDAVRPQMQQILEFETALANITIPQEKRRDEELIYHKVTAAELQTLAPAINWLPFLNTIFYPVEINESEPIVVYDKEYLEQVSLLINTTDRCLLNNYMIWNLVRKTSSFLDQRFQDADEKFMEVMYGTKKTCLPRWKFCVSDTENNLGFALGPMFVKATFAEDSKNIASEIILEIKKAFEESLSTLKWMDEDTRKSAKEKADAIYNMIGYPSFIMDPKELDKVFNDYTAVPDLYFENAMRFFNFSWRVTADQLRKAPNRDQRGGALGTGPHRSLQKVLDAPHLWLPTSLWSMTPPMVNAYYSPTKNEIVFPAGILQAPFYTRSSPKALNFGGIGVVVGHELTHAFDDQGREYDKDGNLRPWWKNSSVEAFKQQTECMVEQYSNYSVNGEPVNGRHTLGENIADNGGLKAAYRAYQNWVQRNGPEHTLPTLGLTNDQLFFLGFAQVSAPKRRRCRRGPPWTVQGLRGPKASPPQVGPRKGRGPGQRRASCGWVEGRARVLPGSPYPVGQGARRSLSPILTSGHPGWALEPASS
Method: b) In vitro ECE-inhibitory activity
The ECE-inhibitory activity in vitro was evaluated according to the method reported in the literature by M. Auget et al., Eur. J. Pharmacol., 224, (1992), 101-102.
Male New Zealand rabbits (2.5-3 Kg) were sacrificed with an excess of pentobarbital and blood was drawn.
The left saphenous artery was removed and cleaned of the surrounding tissue, cut into 2-3 mm length rings and suspended in 25 ml baths containing Krebs-Henseleit solution at 37° C. and oxygenated with O2 containing 5% CO2. This solution was composed of (mM); NaCl, 118; KCl, 4.7; CaCl2, 2.5; KH2 PO4, 1.2; MgSO4, 1.2; NaHCO3, […]; glucose, 11. The preparations were kept under tension and readjusted to 1 g during the equilibration period (1 hour).
After said period, the preparations were exposed to a submaximal concentration of norepinephrine 1 μM which was repeated every 30 minutes until the response was stable. A concentration of acetylcholine 10 μM on the contraction of norepinephrine verified the presence of the endothelium.
After 30 minutes from the last contraction due to norepinephrine, a concentration of human Big endothelin 3×10^-8 M was administered. After reaching the plateau the preparations were washed for 30 minutes and a concentration 1 μM of the compound to be tested or of its vehicle was administered keeping it in contact for 30 minutes, after that a concentration of Big endothelin 3×10^-8 M was administered again. The percentage of ECE-inhibition was expressed as IC50 value (nM).

Row | Compound | IC50 [1] | IC50 [2]
1 | O=C(O)c1cccc(NC(=O)C(CS)Cc2ccccc2)c1 (stereo not drawn) [R-1, N-(3-carboxyphenyl)-3-mercapto-2-benzyl-propanamide, reference compound] | 3.12 nM | –
2 | O=C(O)Cc1csc(NC(=O)C(CS)Cc2ccccc2)n1 (stereo not drawn) [R-2, N-(4-carboxymethyl-2-thiazolyl)-3-mercapto-2-benzyl-propanamide, reference compound] | 8.8 nM | –
3 | O=C(O)c1cc(NC(=O)C(CS)Cc2ccccc2)cs1 (stereo not drawn) [compound 2, N-(2-carboxy-4-thienyl)-3-mercapto-2-benzyl-propanamide] | 1.5 nM | 2 nM
4 | O=C(O)c1cc(NC(=O)C(CS)Cc2ccccc2)c[nH]1 (stereo not drawn) [compound 4, N-(2-carboxy-4-pyrrolyl)-3-mercapto-2-benzyl-propanamide] | 2.1 nM | 2 nM
5 | O=C(O)c1cc(NC(=O)C(CS)Cc2cccnc2)cs1 (stereo not drawn) [compound 6, N-(2-carboxy-4-thienyl)-3-mercapto-2-(3-pyridylmethyl)-propanamide] | 12.6 nM | 1 nM
6 | O=C(O)c1cc(NC(=O)C(CS)Cc2ccc(Cl)cc2)c[nH]1 (stereo not drawn) [compound 9, N-(2-carboxy-4-pyrrolyl)-2-(4-chlorobenzyl)-3-mercapto-propanamide] | 2.7 nM | 4 nM
7 | COc1cccc(CC(CS)C(=O)Nc2c[nH]c(C(=O)O)c2)c1 (stereo not drawn) [compound 13, N-(2-carboxy-4-pyrrolyl)-3-mercapto-2-(3-methoxybenzyl)-propanamide] | 5 nM | 3 nM
